Assay results published in patent US10294202B2, “Pyrrolidinones as herbicides” (FMC Corporation, priority 2013, dated 2019).

Experiments:
barnyardgrass [1] = test: Test A pre-/postemergence herbicide test; format: in vivo, Echinochloa crus-galli
Outline: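 Seeds sown in loam soil/sand blend received a preemergence directed soil spray of test chemical in non-phytotoxic solvent with surfactant; postemergence plants (2–10 cm, one- to two-leaf stage) were sprayed with the same formulation. After about 10 days in greenhouse, injury was rated visually versus untreated controls, 0 (no effect) to 100 (complete control).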

rice = test: Test B flooded paddy test; format: in vivo, Oryza sativa; conditions: Flood, scale of 0 to 100 where 0 is no effect and 100 is complete control
Outline: (§1)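 Plants grown to 2-leaf stage; pots flooded 3 cm above soil and compound applied directly into paddy water, depth held throughout. Visual rating against untreated controls after 13 to 15 days in greenhouse, 0 (no effect) to 100 (complete control).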

barnyardgrass [2] = test: Test B flooded paddy test; format: in vivo, Echinochloa crus-galli; conditions: Flood, scale of 0 to 100 where 0 is no effect and 100 is complete control
Outline: as §1

blackgrass = test: Test C pre-/postemergence herbicide test; format: in vivo, Alopecurus myosuroides
Outline: (§2)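 Visual rating, 0 (no effect) to 100 (complete control), versus untreated controls after 13 to 15 days in the greenhouse. Pre: seeds in loam/sand, sprayed at planting. Post: 1- to 4-leaf plants (2 to 18 cm) in peat-based mix. Compounds in non-phytotoxic solvent plus surfactant.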

galium = test: Test C pre-/postemergence herbicide test; format: in vivo, Galium aparine; conditions: Preemergence
Outline: as §2

corn = test: Test C pre-/postemergence herbicide test; format: in vivo, Zea mays
Outline: as §2

crabgrass, large = test: Test C pre-/postemergence herbicide test; format: in vivo, Digitaria sanguinalis
Outline: as §2

foxtail, giant = test: Test C pre-/postemergence herbicide test; format: in vivo, Setaria faberii
Outline: as §2

lambsquarters = test: Test C pre-/postemergence herbicide test; format: in vivo, Chenopodium album
Outline: as §2

pigweed = test: Test C pre-/postemergence herbicide test; format: in vivo, Amaranthus retroflexus
Outline: as §2

velvetleaf = test: Test C pre-/postemergence herbicide test; format: in vivo, Abutilon theophrasti
Outline: as §2

[3] = Postemergence, 31 g ai/ha, scale 0 (no effect) to 100 (complete control)
[4] = Postemergence, 62 g ai/ha, scale 0 to 100 (0 no effect, 100 complete control)
[5] = Postemergence, 125 g ai/ha, scale 0 to 100 (0 no effect, 100 complete control)
[6] = Postemergence, 250 g ai/ha, scale 0 to 100 (0 no effect, 100 complete control)
[7] = Preemergence, 62 g ai/ha, scale 0 to 100
[8] = Preemergence, 125 g ai/ha, scale 0 to 100 (0 no effect, 100 complete control)
[9] = Preemergence, 31 g ai/ha, scale 0 to 100 (0 no effect, 100 complete control)
[10] = Preemergence, 250 g ai/ha, scale 0 to 100 (0 no effect, 100 complete control)
[11] = 125 g ai/ha, scale 0 to 100 (0 no effect, 100 complete control)
[12] = Preemergence, 31 g ai/ha, scale 0 to 100, 0 is no effect and 100 is complete control
[13] = Preemergence, 62 g ai/ha, scale 0 to 100 (0 no effect, 100 complete control)

O=C1NCC(c2ccc(Cl)c(F)c2)C1C(=O)Nc1cccc(F)c1F (stereo not shown) [Compound 52]
Plant response rating, Barnyardgrass (barnyardgrass [1]; Postemergence, 125 g ai/ha, 0 to 100 scale, 0 no effect, 100 complete control): 80 | Plant response rating, Barnyardgrass (barnyardgrass [1]; Postemergence, 500 g ai/ha, 0 to 100 scale (0 no effect, 100 complete control)): 80 | Barnyardgrass plant response rating (barnyardgrass [1]; Preemergence, 125 g ai/ha, visual rating on 0 to 100 scale (0 no effect, 100 complete control)): 80 | Plant response rating, Barnyardgrass (barnyardgrass [1]; preemergence, 500 g ai/ha, 0 to 100 scale (0 no effect, 100 complete control)): 90 | Plant response rating, Rice (rice; 250 g ai/ha): 25 | Plant response rating, Barnyardgrass (barnyardgrass [2]; 250 g ai/ha): 55 | Plant response rating, Blackgrass (blackgrass; [3]): 0 | Plant response rating, Blackgrass (blackgrass; [4]): 0 | Plant response rating, Blackgrass (blackgrass; [5]): 0 | Plant response rating, Blackgrass (blackgrass; [6]): 0 | Plant response rating, Blackgrass (blackgrass; [7]): 0 | Plant response rating, Blackgrass (blackgrass; [8]): 0 | Blackgrass plant response rating (blackgrass; [9]): 0 | Plant response rating, Blackgrass (blackgrass; [10]): 0 | Plant response rating, Galium (galium; 62 g ai/ha, scale 0 to 100): 0 | Plant response rating, Galium (galium; [11]): 90 | Galium plant response rating (galium; 31 g ai/ha, scale 0 to 100 (0 no effect, 100 complete control)): 0 | Plant response rating, Galium (galium; 250 g ai/ha, scale 0 to 100 (0 no effect, 100 complete control)): 90 | Plant response rating, Corn (corn; [3]): 0 | Plant response rating, Corn (corn; [4]): 0 | Plant response rating, Corn (corn; [5]): 5 | Plant response rating, Corn (corn; [6]): 5 | Plant response rating, Corn (corn; [7]): 10 | Plant response rating, Corn (corn; [8]): 10 | Corn plant response rating (corn; [9]): 10 | Plant response rating, Corn (corn; [10]): 10 | Plant response rating, Crabgrass, Large (crabgrass, large; [3]): 50 | Plant response rating, Crabgrass, Large (crabgrass, large; [4]): 55 | Plant response rating, Crabgrass, Large (crabgrass, large; [5]): 55 | Plant response rating, Crabgrass, Large (crabgrass, large; [6]): 75 | Plant response rating, Crabgrass, Large (crabgrass, large; [7]): 90 | Plant response rating, Crabgrass, Large (crabgrass, large; [8]): 90 | Crabgrass, Large plant response rating (crabgrass, large; [9]): 80 | Plant response rating, Crabgrass, Large (crabgrass, large; [10]): 95 | Plant response rating, Foxtail, Giant (foxtail, giant; [3]): 0 | Plant response rating, Foxtail, Giant (foxtail, giant; [4]): 0 | Plant response rating, Foxtail, Giant (foxtail, giant; [5]): 0 | Plant response rating, Foxtail, Giant (foxtail, giant; [6]): 25 | Plant response rating, Foxtail, Giant (foxtail, giant; [7]): 80 | Plant response rating, Foxtail, Giant (foxtail, giant; [8]): 80 | Foxtail, Giant plant response rating (foxtail, giant; [9]): 55 | Plant response rating, Foxtail, Giant (foxtail, giant; [10]): 85 | Plant response rating, Lambsquarters (lambsquarters; [4]): 10 | Plant response rating, Lambsquarters (lambsquarters; [5]): 40 | Plant response rating, Lambsquarters (lambsquarters; [6]): 40 | Plant response rating, Lambsquarters (lambsquarters; [7]): 40 | Plant response rating, Lambsquarters (lambsquarters; [8]): 70 | Plant response rating, Pigweed (pigweed; [3]): 25 | Plant response rating, Pigweed (pigweed; [4]): 40 | Plant response rating, Pigweed (pigweed; [5]): 50 | Plant response rating, Pigweed (pigweed; [6]): 60 | Plant response rating, Pigweed (pigweed; [7]): 20 | Plant response rating, Pigweed (pigweed; [8]): 55 | Plant response rating, Velvetleaf (velvetleaf; [3]): 10 | Plant response rating, Velvetleaf (velvetleaf; [4]): 20 | Plant response rating, Velvetleaf (velvetleaf; [5]): 20 | Plant response rating, Velvetleaf (velvetleaf; [6]): 35 | Plant response rating, Velvetleaf (velvetleaf; [7]): 5 | Plant response rating, Velvetleaf (velvetleaf; [8]): 5

O=C1NCC(c2ccc(Cl)cc2)C1C(=O)Nc1cccc(F)c1F (stereo not shown) [Compound 218]
Plant response rating, Barnyardgrass (barnyardgrass [1]; 125 g ai/ha, visual rating, 0 to 100 scale, 0 no effect, 100 complete control, approximately 10 days, preemergence): 80 | Plant response rating, Barnyardgrass (barnyardgrass [1]; Postemergence, 125 g ai/ha, 0 to 100 scale, 0 is no effect, 100 is complete control): 60 | Barnyardgrass plant response rating (0 to 100 scale, 0 is no effect, 100 is complete control) (barnyardgrass [1]; Postemergence, 500 g ai/ha): 90 | Plant response rating, Barnyardgrass (barnyardgrass [1]; preemergence, 500 g ai/ha, 0 to 100 scale, 0 is no effect and 100 is complete control): 90 | Plant response rating, Rice (rice; 500 g ai/ha): 0 | Plant response rating, Barnyardgrass (barnyardgrass [2]; 500 g ai/ha): 70 | Blackgrass plant response rating (blackgrass; [12]): 0 | Plant response rating, Blackgrass (blackgrass; [7]): 10 | Plant response rating, Blackgrass (blackgrass; [8]): 50 | Plant response rating (scale of 0 to 100), Blackgrass (blackgrass; Preemergence, 250 g ai/ha): 80 | Galium plant response rating (galium; 31 g ai/ha, scale 0 to 100, 0 is no effect and 100 is complete control): 0 | Galium plant response rating (galium; 62 g ai/ha, scale 0 to 100 (0 no effect, 100 complete control)): 0 | Plant response rating, Galium (galium; [11]): 85 | Plant response rating (scale of 0 to 100), Galium (galium; 250 g ai/ha): 90 | Corn plant response rating (corn; [12]): 0 | Corn plant response rating (corn; [13]): 0 | Plant response rating, Corn (corn; [8]): 0 | Plant response rating (scale of 0 to 100), Corn (corn; Preemergence, 250 g ai/ha): 0 | Crabgrass, Large plant response rating (crabgrass, large; [12]): 90 | Crabgrass, Large plant response rating (crabgrass, large; [13]): 90 | Plant response rating, Crabgrass, Large (crabgrass, large; [8]): 100 | Plant response rating (scale of 0 to 100), Crabgrass, Large (crabgrass, large; Preemergence, 250 g ai/ha): 100 | Foxtail, Giant plant response rating (foxtail, giant; [12]): 85 | Foxtail, Giant plant response rating (foxtail, giant; [13]): 90 | Plant response rating, Foxtail, Giant (foxtail, giant; [8]): 90 | Plant response rating (scale of 0 to 100), Foxtail, Giant (foxtail, giant; Preemergence, 250 g ai/ha): 95 | Lambsquarters plant response rating (lambsquarters; [12]): 10 | Lambsquarters plant response rating (lambsquarters; [13]): 40 | Plant response rating, Lambsquarters (lambsquarters; [8]): 75 | Plant response rating (scale of 0 to 100), Lambsquarters (lambsquarters; Preemergence, 250 g ai/ha): 85 | Pigweed plant response rating (pigweed; [12]): 5 | Pigweed plant response rating (pigweed; [13]): 50 | Plant response rating, Pigweed (pigweed; [8]): 75 | Plant response rating (scale of 0 to 100), Pigweed (pigweed; Preemergence, 250 g ai/ha): 85 | Velvetleaf plant response rating (velvetleaf; [12]): 0 | Velvetleaf plant response rating (velvetleaf; [13]): 0 | Plant response rating, Velvetleaf (velvetleaf; [8]): 15 | Plant response rating (scale of 0 to 100), Velvetleaf (velvetleaf; Preemergence, 250 g ai/ha): 40
